Experimental data from US10918713B2, “Epitopes from allergen proteins and methods and uses for immune response modulation” (LA JOLLA INSTITUTE FOR ALLERGY AND IMMUNOLOGY, priority 2012, dated 2021).
Values joined by “and” are separate entries in the source; they are usually repeats but may differ in a detail not shown here. Equal values may be shown once.

How the values were obtained:
Type in all cases: cell-based, human
[1] = tested on: PBMC from allergic donors; test: Dual ELISPOT, total IL-5 and IFN-γ response (SFC); settings: sum of IFNg and IL-5
Protocol: (§1) Spots were counted by computer-assisted image analysis (Zeiss, KS-ELISPOT reader, Munich, Germany).
(§2) Each assay was performed in triplicate. The level of statistical significance was determined with a Student's t-test using the mean of triplicate values of the response against relevant pools or individual peptides versus the response against the DMSO control.

[2] = tested on: PBMC from allergic donors; test: IL-5 ELISPOT with extract-stimulated short-term lines; settings: positive donor/peptide response
Protocol: as §1, §2

[3] = tested on: PBMC from allergic donors; test: IFN-γ ELISPOT with extract-stimulated short-term lines; settings: positive donor/peptide response
Protocol: as §1, §2

Compound | Response (SFC/10^6) Total ([1]; one donor per table line) | Response (SFC/10^6) IL-5 ([2]; one donor per table line) | Response (SFC/10^6) IFNg ([3]; one donor per table line) | Response (SFC/10^6) Total ([1]; each table line is one donor) | Response (SFC/10^6) IL-5 ([2]; each table line is one donor) | Response (SFC/10^6) IFNg ([3]; each table line is one donor)
CC[C@H](C)[C@H](N)C(=O)N[C@H](C(=O)N[C@@H](Cc1ccccc1)C(=O)N[C@@H](CO)C(=O)N[C@@H](CCC(N)=O)C(=O)N[C@@H](CC(N)=O)C(=O)N[C@@H](CCSC)C(=O)N[C@@H](CC(N)=O)C(=O)N[C@H](C(=O)N[C@@H](CCCCN)C(=O)N[C@@H](CC(C)C)C(=O)N[C@@H](CCCCN)C(=O)N[C@@H](CCSC)C(=O)N1CCC[C@H]1C(=O)N[C@@H](CC(C)C)C(=O)O)[C@@H](C)CC)[C@@H](C)CC [3324.0618] | 80 SFC/10^6 and 3067 SFC/10^6 and 73 SFC/10^6 | 3067 SFC/10^6 | 80 SFC/10^6 and 73 SFC/10^6 |  |  | 
CC[C@H](C)[C@H](N)C(=O)N[C@@H](C)C(=O)N[C@@H](Cc1ccccc1)C(=O)N[C@@H](Cc1ccccc1)C(=O)N[C@@H](CCCNC(=N)N)C(=O)N[C@@H](CCCCN)C(=O)N[C@@H](CCC(=O)O)C(=O)N1CCC[C@H]1C(=O)N[C@@H](CC(C)C)C(=O)N[C@@H](CCCCN)C(=O)N[C@@H](CCC(=O)O)C(=O)N[C@@H](CS)C(=O)NCC(=O)NCC(=O)N[C@H](C(=O)O)[C@@H](C)CC [3337.0029] | 257 SFC/10^6 | 180 SFC/10^6 | 77 SFC/10^6 |  |  | 
CC(C)C[C@H](NC(=O)[C@H](Cc1ccc(O)cc1)NC(=O)[C@H](C)NC(=O)[C@H](CO)NC(=O)[C@H](CCC(=O)O)NC(=O)[C@@H](NC(=O)[C@H](C)NC(=O)[C@H](C)NC(=O)[C@@H](NC(=O)CNC(=O)[C@@H](N)CO)C(C)C)[C@@H](C)O)C(=O)N[C@@H](C)C(=O)N[C@@H](Cc1ccc(O)cc1)C(=O)N[C@@H](CCCNC(=N)N)C(=O)N[C@@H](CC(N)=O)C(=O)O [3324.0829] | 687 SFC/10^6 and 403 SFC/10^6 | 347 SFC/10^6 and 167 SFC/10^6 | 340 SFC/10^6 and 237 SFC/10^6 |  |  | 
CC[C@H](C)[C@H](NC(=O)[C@H](CC(=O)O)NC(=O)[C@H](CCC(=O)O)NC(=O)[C@H](CCSC)NC(=O)[C@H](CC(C)C)NC(=O)[C@H](CCCCN)NC(=O)[C@@H](N)CCC(N)=O)C(=O)N[C@@H](CC(N)=O)C(=O)N[C@H](C(=O)NCC(=O)N[C@@H](Cc1ccccc1)C(=O)N[C@@H](CCCCN)C(=O)N[C@@H](C)C(=O)N[C@@H](C)C(=O)N[C@H](C(=O)O)C(C)C)C(C)C [3324.1580] |  |  |  | 317 SFC/10^6 and 390 SFC/10^6 | 107 SFC/10^6 | 317 SFC/10^6 and 283 SFC/10^6
CC(C)C[C@H](NC(=O)[C@H](Cc1ccc(O)cc1)NC(=O)[C@H](C)NC(=O)[C@H](CCC(=O)O)NC(=O)[C@@H](NC(=O)[C@H](C)NC(=O)[C@H](CCCCN)NC(=O)[C@H](Cc1ccccc1)NC(=O)[C@@H](NC(=O)[C@H](CCC(=O)O)NC(=O)[C@H](CO)NC(=O)[C@H](C)N)C(C)C)C(C)C)C(=O)N[C@H](C(=O)N[C@@H](C)C(=O)N[C@@H](Cc1c[nH]cn1)C(=O)O)C(C)C [3324.1584] | 207 SFC/10^6 and 1033 SFC/10^6 and 97 SFC/10^6 | 207 SFC/10^6 and 890 SFC/10^6 and 97 SFC/10^6 | 143 SFC/10^6 |  |  | 
CSCC[C@H](N)C(=O)N[C@@H](CCCNC(=N)N)C(=O)N[C@@H](CC(N)=O)C(=O)N[C@H](C(=O)N[C@@H](Cc1ccccc1)C(=O)N[C@@H](CC(=O)O)C(=O)N[C@@H](CC(=O)O)C(=O)N[C@H](C(=O)N[C@H](C(=O)N1CCC[C@H]1C(=O)N[C@@H](C)C(=O)N[C@@H](CC(=O)O)C(=O)N[C@@H](Cc1ccccc1)C(=O)N[C@@H](CCCCN)C(=O)N[C@H](C(=O)O)C(C)C)C(C)C)C(C)C)C(C)C [3337.0030] |  |  |  | 213 SFC/10^6 and 133 SFC/10^6 and 907 SFC/10^6 | 110 SFC/10^6 and 133 SFC/10^6 and 447 SFC/10^6 | 103 SFC/10^6 and 460 SFC/10^6
3337.0028 (EPIAPYHFDLSGHAF) | 253 SFC/10^6 | 97 SFC/10^6 | 157 SFC/10^6 |  |  | 
3324.0099 (MKNIFMLTLFILIIT) |  |  |  | 57 SFC/10^6 and 77 SFC/10^6 | 57 SFC/10^6 | 77 SFC/10^6
3324.1592 (LGRAWFEAARVVFSY) |  |  |  | 1550 SFC/10^6 | 1430 SFC/10^6 | 120 SFC/10^6
CSCC[C@H](NC(=O)[C@@H]1CCCN1C(=O)CNC(=O)[C@@H](NC(=O)[C@H](CC(C)C)NC(=O)[C@@H]1CCCN1C(=O)[C@H](CCCCN)NC(=O)[C@H](C)NC(=O)[C@H](CO)NC(=O)[C@H](CCCCN)NC(=O)[C@@H](NC(=O)[C@H](CCC(=O)O)NC(=O)[C@H](Cc1c[nH]c2ccccc12)NC(=O)[C@@H](N)CC(C)C)C(C)C)[C@@H](C)O)C(=O)N[C@@H](CC(N)=O)C(=O)O [3337.0031] |  |  |  | 90 SFC/10^6 and 1713 SFC/10^6 | 1010 SFC/10^6 | 90 SFC/10^6 and 703 SFC/10^6
3324.0842 (GGAINHLSDLSLDEF) | 773 SFC/10^6 | 603 SFC/10^6 | 170 SFC/10^6 |  |  | 
3337.0044 (IKLVKSSRPDCSEIP) |  |  |  | 90 SFC/10^6 and 233 SFC/10^6 | 233 SFC/10^6 | 90 SFC/10^6
CC[C@H](C)[C@H](NC(=O)[C@H](CC(C)C)NC(=O)[C@H](CC(N)=O)NC(=O)[C@H](CC(=O)O)NC(=O)[C@H](CO)NC(=O)[C@H](CC(=O)O)NC(=O)[C@H](CC(C)C)NC(=O)[C@@H](NC(=O)[C@H](Cc1ccccc1)NC(=O)[C@H](C)NC(=O)[C@@H](N)CCCCN)C(C)C)C(=O)N1CCC[C@H]1C(=O)N[C@@H](CCCCN)C(=O)N[C@H](C(=O)N[C@H](C(=O)O)C(C)C)C(C)C [3324.1588] | 123 SFC/10^6 and 1147 SFC/10^6 and 57 SFC/10^6 | 123 SFC/10^6 and 947 SFC/10^6 and 57 SFC/10^6 | 200 SFC/10^6 |  |  | 
CC[C@H](C)[C@H](NC(=O)[C@H](CCCCN)NC(=O)[C@H](CCC(=O)O)NC(=O)[C@@H](NC(=O)[C@@H](N)CC(C)C)[C@@H](C)CC)C(=O)N[C@@H](CC(N)=O)C(=O)N[C@@H](C)C(=O)NCC(=O)N[C@@H](Cc1ccccc1)C(=O)N[C@@H](CCCCN)C(=O)N[C@@H](C)C(=O)N[C@@H](C)C(=O)N[C@H](C(=O)N[C@@H](C)C(=O)N[C@@H](C)C(=O)O)C(C)C [3324.1175] |  |  |  | 1860 SFC/10^6 and 1202 SFC/10^6 and 263 SFC/10^6 | 900 SFC/10^6 and 1202 SFC/10^6 and 263 SFC/10^6 | 960 SFC/10^6
CC[C@H](C)[C@H](NC(=O)[C@H](CC(N)=O)NC(=O)[C@H](CC(C)C)NC(=O)[C@@H](NC(=O)[C@H](CC(C)C)NC(=O)[C@@H](NC(=O)[C@H](CCCCN)NC(=O)[C@H](C)NC(=O)[C@H](CC(=O)O)NC(=O)[C@@H](N)CO)[C@@H](C)O)C(C)C)C(=O)N[C@@H](CCCCN)C(=O)N[C@@H](Cc1ccc(O)cc1)C(=O)N[C@H](C(=O)N[C@@H](CCCNC(=N)N)C(=O)N1CCC[C@H]1C(=O)O)[C@@H](C)O [3324.1142] |  |  |  | 227 SFC/10^6 and 147 SFC/10^6 and 1697 SFC/10^6 | 227 SFC/10^6 and 147 SFC/10^6 and 1547 SFC/10^6 | 150 SFC/10^6
CC[C@H](C)[C@H](NC(=O)[C@H](Cc1ccc(O)cc1)NC(=O)[C@H](CCC(=O)O)NC(=O)[C@H](CC(C)C)NC(=O)[C@H](CO)NC(=O)[C@@H](NC(=O)[C@@H](N)Cc1ccccc1)[C@@H](C)O)C(=O)N[C@@H](CCC(=O)O)C(=O)N[C@@H](C)C(=O)N[C@@H](C)C(=O)N[C@@H](CCCCN)C(=O)N[C@@H](Cc1c[nH]c2ccccc12)C(=O)N[C@@H](CC(C)C)C(=O)N[C@@H](CC(C)C)C(=O)N1CCC[C@H]1C(=O)O [3324.1589] |  |  |  | 1743 SFC/10^6 and 203 SFC/10^6 | 1433 SFC/10^6 and 203 SFC/10^6 | 310 SFC/10^6
CC[C@H](C)[C@H](NC(=O)[C@H](Cc1ccccc1)NC(=O)[C@H](CC(=O)O)NC(=O)[C@@H](NC(=O)[C@@H](NC(=O)CNC(=O)[C@@H](N)CCC(=O)O)[C@@H](C)O)C(C)C)C(=O)N[C@@H](Cc1ccccc1)C(=O)NCC(=O)N[C@@H](CCC(=O)O)C(=O)N[C@@H](C)C(=O)N[C@@H](CCCNC(=N)N)C(=O)N[C@@H](CO)C(=O)N[C@@H](CC(C)C)C(=O)N[C@@H](Cc1ccc(O)cc1)C(=O)O [3324.1590] |  |  |  | 1697 SFC/10^6 and 363 SFC/10^6 | 1300 SFC/10^6 and 363 SFC/10^6 | 397 SFC/10^6
3324.0613 (MNIKLQMPLYVAGYK) | 652 SFC/10^6 and 120 SFC/10^6 | 652 SFC/10^6 | 120 SFC/10^6 |  |  | 
CC[C@H](C)[C@H](NC(=O)[C@H](CCC(=O)O)NC(=O)[C@H](CCCNC(=N)N)NC(=O)[C@H](Cc1c[nH]c2ccccc12)NC(=O)[C@H](CCCNC(=N)N)NC(=O)[C@H](Cc1c[nH]cn1)NC(=O)[C@@H](N)CCC(=O)O)C(=O)N[C@@H](Cc1ccc(O)cc1)C(=O)N[C@@H](CC(N)=O)C(=O)N[C@@H](CCSC)C(=O)N[C@H](C(=O)N[C@@H](CCCCN)C(=O)N[C@@H](Cc1ccccc1)C(=O)N[C@@H](CCCNC(=N)N)C(=O)N[C@@H](CCSC)C(=O)O)C(C)C [3324.0986] | 300 SFC/10^6 and 1007 SFC/10^6 and 80 SFC/10^6 and 402 SFC/10^6 | 300 SFC/10^6 and 80 SFC/10^6 and 402 SFC/10^6 | 1007 SFC/10^6 |  |  | 
CC[C@H](C)[C@H](NC(=O)[C@H](CC(N)=O)NC(=O)[C@H](CCSC)NC(=O)[C@H](CC(N)=O)NC(=O)[C@H](CCC(N)=O)NC(=O)[C@H](CO)NC(=O)[C@H](Cc1ccccc1)NC(=O)[C@@H](NC(=O)[C@@H](NC(=O)[C@H](Cc1c[nH]c2ccccc12)NC(=O)[C@H](CC(C)C)NC(=O)[C@H](C)NC(=O)[C@H](CCCCN)NC(=O)[C@@H](N)CCC(=O)O)[C@@H](C)CC)[C@@H](C)CC)C(=O)N[C@@H](CCCCN)C(=O)O [3324.0615] | 400 SFC/10^6 | 67 SFC/10^6 | 333 SFC/10^6 |  |  | 
